# Results from PubChem BioAssay (NCI).
#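 Interpolation was linear, between the two tested concentrations surrounding the appropriate level; five concentrations were tested over 48 hours in 96-well plates. GI50: concentration for 50% inhibition of growth. TGI is the concentration that stops growth completely.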
# How the values were obtained:
# Experiment in all cases: NCI-60 cell line screen, 48 h
# SK-MEL-2 melanoma = tested on: SK-MEL-2 melanoma
# MDA-MB-231 breast = tested on: MDA-MB-231 breast
# M14 melanoma = tested on: M14 melanoma
# T-47D breast = tested on: T-47D breast
# SF-268 CNS = tested on: SF-268 CNS
# SK-MEL-5 melanoma = tested on: SK-MEL-5 melanoma
# PC-3 prostate = tested on: PC-3 prostate
# U251 CNS = tested on: U251 CNS
# HCC-2998 colon = tested on: HCC-2998 colon
# NCI-H23 lung = tested on: NCI-H23 lung
# KM12 colon = tested on: KM12 colon
# BT-549 breast = tested on: BT-549 breast
# CAKI-1 renal = tested on: CAKI-1 renal
# K-562 leukemia = tested on: K-562 leukemia
# RXF 393 renal = tested on: RXF 393 renal
# HCT-15 colon = tested on: HCT-15 colon
# HOP-92 NSCLC = tested on: HOP-92 NSCLC
# OVCAR-8 ovarian = tested on: OVCAR-8 ovarian
# SF-539 CNS = tested on: SF-539 CNS
# A549 NSCLC = tested on: A549 NSCLC
# MOLT-4 leukemia = tested on: MOLT-4 leukemia
# LOX IMVI melanoma = tested on: LOX IMVI melanoma
# OVCAR-5 ovarian = tested on: OVCAR-5 ovarian
# NCI/ADR-RES ovarian = tested on: NCI/ADR-RES ovarian
# CCRF-CEM leukemia = tested on: CCRF-CEM leukemia
# HS 578T breast = tested on: HS 578T breast
# UACC-62 melanoma = tested on: UACC-62 melanoma
# EKVX NSCLC = tested on: EKVX NSCLC
# UACC-257 melanoma = tested on: UACC-257 melanoma
# NCI-H460 lung = tested on: NCI-H460 lung
# HCT-116 colon = tested on: HCT-116 colon
# OVCAR-4 ovarian = tested on: OVCAR-4 ovarian
# ACHN renal = tested on: ACHN renal
# SR leukemia = tested on: SR leukemia
# OVCAR-3 ovarian = tested on: OVCAR-3 ovarian
# HOP-62 NSCLC = tested on: HOP-62 NSCLC
# SK-OV-3 ovarian = tested on: SK-OV-3 ovarian
# SN12C renal = tested on: SN12C renal
# DU-145 prostate = tested on: DU-145 prostate
# NCI-H522 lung = tested on: NCI-H522 lung
# RPMI-8226 leukemia = tested on: RPMI-8226 leukemia
# MALME-3M melanoma = tested on: MALME-3M melanoma
# 786-0 renal = tested on: 786-0 renal
# UO-31 renal = tested on: UO-31 renal
# SNB-19 CNS = tested on: SNB-19 CNS
# SF-295 CNS = tested on: SF-295 CNS
# MDA-MB-435 = tested on: MDA-MB-435
# SK-MEL-28 melanoma = tested on: SK-MEL-28 melanoma
# HT29 colon = tested on: HT29 colon
# SNB-75 CNS = tested on: SNB-75 CNS
# A498 renal = tested on: A498 renal
# SW-620 colon = tested on: SW-620 colon
# TK-10 renal = tested on: TK-10 renal
# COLO 205 colon = tested on: COLO 205 colon
# HL-60(TB) leukemia = tested on: HL-60(TB) leukemia
# MCF7 breast = tested on: MCF7 breast
# NCI-H226 lung = tested on: NCI-H226 lung
# IGROV1 ovarian = tested on: IGROV1 ovarian
smiles,measurement,setting,value
COc1ccc(/C=c2\sc3n(c2=O)C2C(NN=3)N(C)C(=O)N2C)cc1 (stereo unspecified),GI50,SK-MEL-2 melanoma,2310 nM
same,TGI,SK-MEL-2 melanoma,> 100000 nM
same,GI50,MDA-MB-231 breast,2770 nM
same,TGI,MDA-MB-231 breast,> 100000 nM
same,GI50,M14 melanoma,344 nM
same,TGI,M14 melanoma,5170 nM
same,GI50,T-47D breast,1560 nM
same,TGI,T-47D breast,> 100000 nM
same,GI50,SF-268 CNS,> 100000 nM
same,TGI,SF-268 CNS,> 100000 nM
same,GI50,SK-MEL-5 melanoma,660 nM
same,TGI,SK-MEL-5 melanoma,> 100000 nM
same,GI50,PC-3 prostate,444 nM
same,TGI,PC-3 prostate,> 100000 nM
same,GI50,U251 CNS,1440 nM
same,TGI,U251 CNS,> 100000 nM
same,GI50,HCC-2998 colon,1500 nM
same,TGI,HCC-2998 colon,> 100000 nM
same,GI50,NCI-H23 lung,1750 nM
same,TGI,NCI-H23 lung,> 100000 nM
same,GI50,KM12 colon,588 nM
same,TGI,KM12 colon,> 100000 nM
same,GI50,BT-549 breast,589 nM
same,TGI,BT-549 breast,> 100000 nM
same,GI50,CAKI-1 renal,563 nM
same,TGI,CAKI-1 renal,> 100000 nM
same,GI50,K-562 leukemia,331 nM
same,TGI,K-562 leukemia,> 100000 nM
same,GI50,RXF 393 renal,603 nM
same,TGI,RXF 393 renal,2750 nM
same,GI50,HCT-15 colon,428 nM
same,TGI,HCT-15 colon,> 100000 nM
same,GI50,HOP-92 NSCLC,513 nM
same,TGI,HOP-92 NSCLC,> 100000 nM
same,GI50,OVCAR-8 ovarian,1750 nM
same,TGI,OVCAR-8 ovarian,> 100000 nM
same,GI50,SF-539 CNS,780 nM
same,TGI,SF-539 CNS,6040 nM
same,GI50,A549 NSCLC,1350 nM
same,TGI,A549 NSCLC,> 100000 nM
same,GI50,MOLT-4 leukemia,1240 nM
same,TGI,MOLT-4 leukemia,> 100000 nM
same,GI50,LOX IMVI melanoma,1630 nM
same,TGI,LOX IMVI melanoma,> 100000 nM
same,GI50,OVCAR-5 ovarian,2250 nM
same,TGI,OVCAR-5 ovarian,> 100000 nM
same,GI50,NCI/ADR-RES ovarian,579 nM
same,TGI,NCI/ADR-RES ovarian,> 40900 nM
same,GI50,CCRF-CEM leukemia,426 nM
same,TGI,CCRF-CEM leukemia,> 100000 nM
same,GI50,HS 578T breast,659 nM
same,TGI,HS 578T breast,8960 nM
same,GI50,UACC-62 melanoma,578 nM
same,TGI,UACC-62 melanoma,> 100000 nM
same,GI50,EKVX NSCLC,1720 nM
same,TGI,EKVX NSCLC,> 100000 nM
same,GI50,UACC-257 melanoma,> 100000 nM
same,TGI,UACC-257 melanoma,> 100000 nM
same,GI50,NCI-H460 lung,933 nM
same,TGI,NCI-H460 lung,> 100000 nM
same,GI50,HCT-116 colon,483 nM
same,TGI,HCT-116 colon,> 100000 nM
same,GI50,OVCAR-4 ovarian,> 100000 nM
same,TGI,OVCAR-4 ovarian,> 100000 nM
same,GI50,ACHN renal,1530 nM
same,TGI,ACHN renal,> 100000 nM
same,GI50,SR leukemia,316 nM
same,TGI,SR leukemia,> 100000 nM
same,GI50,OVCAR-3 ovarian,481 nM
same,TGI,OVCAR-3 ovarian,3530 nM
same,GI50,HOP-62 NSCLC,1290 nM
same,TGI,HOP-62 NSCLC,> 100000 nM
same,GI50,SK-OV-3 ovarian,2130 nM
same,TGI,SK-OV-3 ovarian,> 100000 nM
same,GI50,SN12C renal,1630 nM
same,TGI,SN12C renal,> 100000 nM
same,GI50,DU-145 prostate,1320 nM
same,TGI,DU-145 prostate,> 100000 nM
same,GI50,NCI-H522 lung,877 nM
same,TGI,NCI-H522 lung,> 100000 nM
same,GI50,RPMI-8226 leukemia,455 nM
same,TGI,RPMI-8226 leukemia,> 19600 nM
same,GI50,MALME-3M melanoma,1190 nM
same,TGI,MALME-3M melanoma,> 100000 nM
same,GI50,786-0 renal,492 nM
same,TGI,786-0 renal,> 100000 nM
same,GI50,UO-31 renal,1860 nM
same,TGI,UO-31 renal,> 100000 nM
same,GI50,SNB-19 CNS,1300 nM
same,TGI,SNB-19 CNS,> 100000 nM
same,GI50,SF-295 CNS,917 nM
same,TGI,SF-295 CNS,> 24500 nM
same,GI50,MDA-MB-435,200 nM
same,TGI,MDA-MB-435,759 nM
same,GI50,SK-MEL-28 melanoma,2270 nM
same,TGI,SK-MEL-28 melanoma,> 100000 nM
same,GI50,HT29 colon,560 nM
same,TGI,HT29 colon,> 100000 nM
same,GI50,SNB-75 CNS,1170 nM
same,TGI,SNB-75 CNS,6770 nM
same,GI50,A498 renal,113 nM
same,TGI,A498 renal,1490 nM
same,GI50,SW-620 colon,747 nM
same,TGI,SW-620 colon,> 100000 nM
same,GI50,TK-10 renal,> 100000 nM
same,TGI,TK-10 renal,> 100000 nM
same,GI50,COLO 205 colon,1090 nM
same,TGI,COLO 205 colon,> 100000 nM
same,GI50,HL-60(TB) leukemia,501 nM
same,TGI,HL-60(TB) leukemia,1960 nM
same,GI50,MCF7 breast,384 nM
same,TGI,MCF7 breast,> 100000 nM
same,GI50,NCI-H226 lung,1180 nM
same,TGI,NCI-H226 lung,> 100000 nM
same,GI50,IGROV1 ovarian,1320 nM
same,TGI,IGROV1 ovarian,> 100000 nM
